Among the data in US10023564B2, “G protein-coupled receptor kinase 2 inhibitors and methods for use of the same” (THE REGENTS OF THE UNIVERSITY OF MICHIGAN, priority 2014, dated 2018) are IC50 values, retold here.

Each structure is given as a SMILES string. Some results are limits rather than exact numbers.

One may read the IC50 as the point on the concentration scale where inhibition reaches its midpoint. A lower IC50 goes with greater potency in that assay.

GRK2, sequence (P25098 whole entry, species assumed): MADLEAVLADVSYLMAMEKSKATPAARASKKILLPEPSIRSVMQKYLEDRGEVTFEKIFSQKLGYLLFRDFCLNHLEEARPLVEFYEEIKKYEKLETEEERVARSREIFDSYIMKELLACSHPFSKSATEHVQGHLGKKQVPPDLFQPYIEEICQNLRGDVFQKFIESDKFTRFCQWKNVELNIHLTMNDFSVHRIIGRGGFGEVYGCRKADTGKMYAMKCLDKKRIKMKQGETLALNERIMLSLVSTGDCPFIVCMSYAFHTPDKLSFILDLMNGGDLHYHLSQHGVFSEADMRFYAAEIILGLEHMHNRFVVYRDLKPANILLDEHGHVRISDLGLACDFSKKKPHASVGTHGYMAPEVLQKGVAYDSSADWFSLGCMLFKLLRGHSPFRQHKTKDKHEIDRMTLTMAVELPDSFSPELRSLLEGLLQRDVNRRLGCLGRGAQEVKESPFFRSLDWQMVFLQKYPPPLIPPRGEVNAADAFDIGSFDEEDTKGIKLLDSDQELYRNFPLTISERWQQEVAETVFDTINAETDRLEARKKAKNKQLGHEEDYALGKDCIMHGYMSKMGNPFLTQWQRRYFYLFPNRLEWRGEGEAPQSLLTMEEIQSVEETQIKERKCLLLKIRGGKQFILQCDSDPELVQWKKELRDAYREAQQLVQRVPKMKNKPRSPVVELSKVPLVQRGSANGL

One experiment concerns the target GRK2 (Homo sapiens (Human), UniProt P25098). The experiment in a line: GRK2 kinetic assay (phosphorylation of bROS or tubulin, phosphorimaging). It is filed as biochemical. As to conditions: 50 nM GRK, 5 μM ATP, 5 min reaction. Here is the method: The low salt concentration and DDM were used to maximize GRK activity and disrupt small molecule aggregates from forming, respectively. […] Data was analyzed and inhibition curves were fit via GraphPad Prism.
As for `CCC(C)N(C)C(=O)c1cc(C2NC(=O)NC(C)=C2C(=O)Nc2ccc3[nH]ncc3c2)ccc1F` (centres unmarked) [Example E19, 4-(3-(sec-butyl(methyl)carbamoyl)-4-fluorophenyl)-N-(1H-indazol-5-yl)-6-methyl-2-oxo-1,2,3,4-tetrahydropyrimidine-5-carboxamide], 51000 nM corresponded to half-maximal inhibition (IC50).

In turn, `CC1=C(C(=O)Nc2ccc3[nH]ncc3c2)C(c2ccc(F)c(C(=O)NCC(C)N3CCCCCC3)c2)NC(=O)N1` (centres unmarked) [Example E20, 4-(3-((2-(azepan-1-yl)propyl)carbamoyl)-4-fluorophenyl)-N-(1H-indazol-5-yl)-6-methyl-2-oxo-1,2,3,4-tetrahydropyrimidine-5-carboxamide] gave an IC50 of 740 nM.

Take `CC1=C(C(=O)Nc2ccc3[nH]ncc3c2)C(c2ccc(F)c(C(=O)N(C)CC3CCCCO3)c2)NC(=O)N1` (centres unmarked) [Example E21, 4-(4-fluoro-3-(methyl((tetrahydro-2H-pyran-2-yl)methyl)carbamoyl)phenyl)-N-(1H-indazol-5-yl)-6-methyl-2-oxo-1,2,3,4-tetrahydropyrimidine-5-carboxamide]: the IC50 was found to be 14600 nM.

`COC(=O)C1(NC(=O)c2cc(C3NC(=O)NC(C)=C3C(=O)Nc3ccc4[nH]ncc4c3)ccc2F)CCCCC1` (centres unmarked) [Example E23, methyl 1-(5-(5-((1H-indazol-5-yl)carbamoyl)-6-methyl-2-oxo-1,2,3,4-tetrahydropyrimidin-4-yl)-2-fluorobenzamido)cyclohexanecarboxylate] yielded an IC50 of 820 nM.

In turn, `COCc1noc(CNC(=O)c2cc(C3NC(=O)NC(C)=C3C(=O)Nc3ccc4[nH]ncc4c3)ccc2F)n1` (centres unmarked) [Example E24, 4-(4-fluoro-3-(((3-(methoxymethyl)-1,2,4-oxadiazol-5-yl)methyl)carbamoyl)phenyl)-N-(1H-indazol-5-yl)-6-methyl-2-oxo-1,2,3,4-tetrahydropyrimidine-5-carboxamide] yielded an IC50 of 240 nM.

Consider `CC1=C(C(=O)Nc2ccc3[nH]ncc3c2)C(c2ccc(F)c(C(=O)NC3CC4CCC3(C)C4(C)C)c2)NC(=O)N1` (centres unmarked) [Example E25, 4-(4-fluoro-3-((1,7,7-trimethylbicyclo[2.2.1]heptan-2-yl)carbamoyl)phenyl)-N-(1H-indazol-5-yl)-6-methyl-2-oxo-1,2,3,4-tetrahydropyrimidine-5-carboxamide], for which the IC50 was 5200 nM.

The compound `CC1=C(C(=O)Nc2ccc3[nH]ncc3c2)C(c2ccc(F)c(C(=O)N(C)Cc3cc(C)[nH]n3)c2)NC(=O)N1` (centres unmarked) [Example E26, 4-(4-fluoro-3-(methyl((5-methyl-1H-pyrazol-3-yl)methyl)carbamoyl)phenyl)-N-(1H-indazol-5-yl)-6-methyl-2-oxo-1,2,3,4-tetrahydropyrimidine-5-carboxamide] showed an IC50 of 1200 nM.

Another experiment deals with ROCK1 (Homo sapiens (Human), UniProt Q13464). The experiment can be described thus: Rho-associated coiled-coil kinase (ROCK) assay, ADP-Glo system. It counts as biochemical. As to conditions: 0.1 μg ROCK1, 1 μg S6K substrate, 100 μM ATP, 60 min. As for the experimental part: Rho-associated coiled-coil kinase (ROCK) assays were performed with the ADP-Glo system using 0.1 μg ROCK1 and 1 μg S6K substrate, and 100 μM ATP for 60 min prior to addition of ADP-GLO Reagent, and allowed to incubate for an additional 40 min prior to the addition of the Kinase Detection Reagent and imaging on a PHERASTAR system.
ROCK1, sequence (Q13464 whole entry, species assumed): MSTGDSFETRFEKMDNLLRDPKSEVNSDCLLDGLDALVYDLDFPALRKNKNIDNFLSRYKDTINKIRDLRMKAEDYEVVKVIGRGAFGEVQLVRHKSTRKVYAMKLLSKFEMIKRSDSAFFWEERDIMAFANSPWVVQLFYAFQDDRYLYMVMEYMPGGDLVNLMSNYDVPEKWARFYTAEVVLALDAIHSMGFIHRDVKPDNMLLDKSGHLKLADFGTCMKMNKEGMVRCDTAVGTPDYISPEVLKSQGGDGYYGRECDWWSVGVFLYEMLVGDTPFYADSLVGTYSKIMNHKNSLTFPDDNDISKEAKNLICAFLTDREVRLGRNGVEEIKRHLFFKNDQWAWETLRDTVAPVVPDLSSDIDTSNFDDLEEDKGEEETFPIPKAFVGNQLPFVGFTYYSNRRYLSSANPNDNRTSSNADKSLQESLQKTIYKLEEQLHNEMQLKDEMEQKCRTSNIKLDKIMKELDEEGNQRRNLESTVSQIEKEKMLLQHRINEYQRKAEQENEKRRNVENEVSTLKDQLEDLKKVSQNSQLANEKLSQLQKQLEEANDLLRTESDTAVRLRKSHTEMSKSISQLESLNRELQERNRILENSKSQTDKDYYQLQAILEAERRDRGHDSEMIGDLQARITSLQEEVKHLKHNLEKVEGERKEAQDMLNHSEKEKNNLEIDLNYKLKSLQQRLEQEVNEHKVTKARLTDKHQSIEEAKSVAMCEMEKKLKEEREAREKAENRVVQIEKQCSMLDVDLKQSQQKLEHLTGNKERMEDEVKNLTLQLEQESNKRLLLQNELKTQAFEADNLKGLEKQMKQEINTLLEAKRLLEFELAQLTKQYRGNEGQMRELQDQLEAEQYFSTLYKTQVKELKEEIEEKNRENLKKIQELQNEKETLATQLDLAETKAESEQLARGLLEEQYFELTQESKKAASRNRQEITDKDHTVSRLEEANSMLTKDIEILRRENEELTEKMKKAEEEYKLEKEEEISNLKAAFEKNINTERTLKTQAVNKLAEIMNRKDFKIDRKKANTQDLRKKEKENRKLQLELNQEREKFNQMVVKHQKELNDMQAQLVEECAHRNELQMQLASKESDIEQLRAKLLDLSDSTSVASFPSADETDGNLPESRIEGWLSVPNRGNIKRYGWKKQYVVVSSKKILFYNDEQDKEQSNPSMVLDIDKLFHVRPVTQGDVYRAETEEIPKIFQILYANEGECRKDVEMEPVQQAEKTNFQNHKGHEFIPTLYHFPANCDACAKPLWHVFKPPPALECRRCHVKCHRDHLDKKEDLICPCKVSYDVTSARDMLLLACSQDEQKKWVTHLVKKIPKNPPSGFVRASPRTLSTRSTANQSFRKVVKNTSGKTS
In the case of `CC1=C(C(=O)Nc2ccc3[nH]ncc3c2)C(c2ccc(F)c(C(=O)NCc3ccccn3)c2)NC(=O)N1` (centres unmarked) [Example E01, 4-(4-fluoro-3-((pyridin-2-ylmethyl)carbamoyl)phenyl)-N-(1H-indazol-5-yl)-6-methyl-2-oxo-1,2,3,4-tetrahydropyrimidine-5-carboxamide], the IC50 worked out at 11 nM.

In turn, `CC1=C(C(=O)Nc2ccc3[nH]ncc3c2)C(c2ccc(F)c(C(=O)NCCc3ccccn3)c2)NC(=O)N1` (centres unmarked) [Example E03, 4-(4-fluoro-3-((2-(pyridin-2-yl)ethyl)carbamoyl)phenyl)-N-(1H-indazol-5-yl)-6-methyl-2-oxo-1,2,3,4-tetrahydropyrimidine-5-carboxamide] came in with an IC50 of 23 nM.

In the case of `CC1=C(C(=O)Nc2ccc3[nH]ncc3c2)C(c2ccc(F)c(C(=O)NCc3cccc(F)c3)c2)NC(=O)N1` (centres unmarked) [Example E04, 4-(4-fluoro-3-((3-fluorobenzyl)carbamoyl)phenyl)-N-(1H-indazol-5-yl)-6-methyl-2-oxo-1,2,3,4-tetrahydropyrimidine-5-carboxamide], the IC50 was determined as 21 nM.

With `COc1ccc(CNC(=O)c2cc(C3NC(=O)NC(C)=C3C(=O)Nc3ccc4[nH]ncc4c3)ccc2F)cc1` (centres unmarked) [Example E06, 4-(4-fluoro-3-((4-methoxybenzyl)carbamoyl)phenyl)-N-(1H-indazol-5-yl)-6-methyl-2-oxo-1,2,3,4-tetrahydropyrimidine-5-carboxamide], the IC50 amounted to 50 nM.

On to `CC1=C(C(=O)Nc2ccc3[nH]ncc3c2)C(c2ccc(F)c(C(=O)NCCc3ccncc3)c2)NC(=O)N1` (centres unmarked) [Example E07, 4-(4-fluoro-3-((2-(pyridin-4-yl)ethyl)carbamoyl)phenyl)-N-(1H-indazol-5-yl)-6-methyl-2-oxo-1,2,3,4-tetrahydropyrimidine-5-carboxamide], for which the IC50 is greater than 100000 nM.

`CC1=C(C(=O)Nc2ccc3[nH]ncc3c2)C(c2ccc(F)c(C(=O)NCc3c(Cl)cccc3Cl)c2)NC(=O)N1` (centres unmarked) [Example E09, 4-(3-((2,6-dichlorobenzyl)carbamoyl)-4-fluorophenyl)-N-(1H-indazol-5-yl)-6-methyl-2-oxo-1,2,3,4-tetrahydropyrimidine-5-carboxamide] yielded an IC50 of 6700 nM.

`CC1=C(C(=O)Nc2ccc3[nH]ncc3c2)C(c2ccc(F)c(C(=O)NCc3c(C)cccc3C)c2)NC(=O)N1` (centres unmarked) [Example E10, 4-(3-((2,6-dimethylbenzyl)carbamoyl)-4-fluorophenyl)-N-(1H-indazol-5-yl)-6-methyl-2-oxo-1,2,3,4-tetrahydropyrimidine-5 carboxamide] came in with an IC50 of 5800 nM.

With `COc1cccc(OC)c1CNC(=O)c1cc(C2NC(=O)NC(C)=C2C(=O)Nc2ccc3[nH]ncc3c2)ccc1F` (centres unmarked) [Example E11, 4-(3-((2,6-dimethoxybenzyl)carbamoyl)-4-fluorophenyl)-N-(1H-indazol-5-yl)-6-methyl-2-oxo-1,2,3,4-tetrahydropyrimidine-5-carboxamide], the IC50 is greater than 10000 nM.

The compound `CNC(=O)c1cc(C2NC(=O)NC(C)=C2C(=O)Nc2ccc3[nH]ncc3c2)ccc1F` (centres unmarked) [Example E12, 4-(4-fluoro-3-(methylcarbamoyl)phenyl)-N-(1H-indazol-5-yl)-6-methyl-2-oxo-1,2,3,4-tetrahydropyrimidine-5-carboxamide] had an IC50 of 190 nM.

`CC1=C(C(=O)Nc2ccc3[nH]ncc3c2)C(c2ccc(F)c(C(=O)NCc3cc(C(F)(F)F)cc(C(F)(F)F)c3)c2)NC(=O)N1` (centres unmarked) [Example E13, 4-(3-((3,5-bis(trifluoromethyl)benzyl)carbamoyl)-4-fluorophenyl)-N-(1H-indazol-5-yl)-6-methyl-2-oxo-1,2,3,4-tetrahydropyrimidine-5-carboxamide] yielded an IC50 of 1900 nM.

As to `CC1=C(C(=O)Nc2ccc3[nH]ncc3c2)C(c2ccc(F)c(C(=O)NCCc3c(C)cccc3C)c2)NC(=O)N1` (centres unmarked) [Example E14, 4-(3-((2,6-dimethylphenethyl)carbamoyl)-4-fluorophenyl)-N-(1H-indazol-5-yl)-6-methyl-2-oxo-1,2,3,4-tetrahydropyrimidine-5-carboxamide], inhibition was half-maximal at 290 nM (IC50).

`CC1=C(C(=O)Nc2ccc3[nH]ncc3c2)C(c2ccc(F)c(C(=O)NCc3ncccc3C)c2)NC(=O)N1` (centres unmarked) [Example E15, 4-(4-fluoro-3-(((3-methylpyridin-2-yl)methyl)carbamoyl)phenyl)-N-(1H-indazol-5-yl)-6-methyl-2-oxo-1,2,3,4-tetrahydropyrimidine-5-carboxamide] came in with an IC50 of 150 nM.

The compound `CC1=C(C(=O)Nc2ccc3[nH]ncc3c2)C(c2ccc(F)c(C(=O)NCc3ccccc3)c2)NC(=O)N1` (centres unmarked) [Example E16, 4-(3-(benzylcarbamoyl)-4-fluorophenyl)-N-(1H-indazol-5-yl)-6-methyl-2-oxo-1,2,3,4-tetrahydropyrimidine-5-carboxamide] yielded an IC50 of 69 nM.

`CC1=C(C(=O)Nc2ccc3[nH]ncc3c2)C(c2ccc(F)c(C(=O)NCc3c(C(F)(F)F)cccc3C(F)(F)F)c2)NC(=O)N1` (centres unmarked) [Example E17, 4-(3-((2,6-bis(trifluoromethyl)benzyl)carbamoyl)-4-fluorophenyl)-N-(1H-indazol-5-yl)-6-methyl-2-oxo-1,2,3,4-tetrahydropyrimidine-5-carboxamide]: the IC50 is greater than 10000 nM.

Consider `COc1cccc(CNC(=O)c2cc(C3NC(=O)NC(C)=C3C(=O)Nc3ccc4[nH]ncc4c3)ccc2F)c1` (centres unmarked) [Example E18, 4-(4-fluoro-3-((3-methoxybenzyl)carbamoyl)phenyl)-N-(1H-indazol-5-yl)-6-methyl-2-oxo-1,2,3,4-tetrahydropyrimidine-5-carboxamide], for which the midpoint of inhibition, the IC50, lay at 97 nM.

`CC1=C(C(=O)Nc2ccc3[nH]ncc3c2)C(c2ccc(F)c(CC(=O)NCc3c(C)cccc3C)c2)NC(=O)N1` (centres unmarked) [Example E28, 4-(3-(2-((2,6-dimethylbenzyl)amino)-2-oxoethyl)-4-fluorophenyl)-N-(1H-indazol-5-yl)-6-methyl-2-oxo-1,2,3,4-tetrahydropyrimidine-5-carboxamide]: the 50% inhibitory concentration (IC50) came out at 450 nM.

As to `CC1=C(C(=O)Nc2ccc3[nH]ncc3c2)C(c2ccc(F)c(CC(=O)NCc3c(C(F)(F)F)cccc3C(F)(F)F)c2)NC(=O)N1` (centres unmarked) [Example E29, 4-(3-(2-((2,6-bis(trifluoromethyl)benzyl)amino)-2-oxoethyl)-4-fluorophenyl)-N-(1H-indazol-5-yl)-6-methyl-2-oxo-1,2,3,4-tetrahydropyrimidine-5-carboxamide], the IC50 was determined as 400 nM.

For `COc1cccc(OC)c1CNC(=O)Cc1cc(C2NC(=O)NC(C)=C2C(=O)Nc2ccc3[nH]ncc3c2)ccc1F` (centres unmarked) [Example E30, 4-(3-(2-((2,6-dimethoxybenzyl)amino)-2-oxoethyl)-4-fluorophenyl)-N-(1H-indazol-5-yl)-6-methyl-2-oxo-1,2,3,4-tetrahydropyrimidine-5-carboxamide], half-maximal inhibition (IC50) was put at 200 nM.

In turn, `CC1=C(C(=O)Nc2ccc3[nH]ncc3c2)C(c2ccc(F)cc2)NC(=O)N1` (centres unmarked) [GSK180736A, reference compound] gave an IC50 of 78 nM.
